Where “and” joins values, the source holds several entries; their conditions need not be identical. Equal values may be shown once. Read-outs that look alike come from different tables or passages of the source.
How the values were obtained:
recTsMFABP2 [1] = target: T1, recTsMFABP2 (Taenia solium, UniProt F2WVQ3); test: Fluorometric ligand binding assay, recombinant TsMFABP2; settings: for Vmax: rate calculated from relative fluorescence (Vmax = Fmax), ligand 0.1-10 µM (FA analogs) or 0.1-10 mM (retinol); for Vmax/K d (binding rate constant): ratio of Vmax to K d
T1 sequence (F2WVQ3 entry or part of it): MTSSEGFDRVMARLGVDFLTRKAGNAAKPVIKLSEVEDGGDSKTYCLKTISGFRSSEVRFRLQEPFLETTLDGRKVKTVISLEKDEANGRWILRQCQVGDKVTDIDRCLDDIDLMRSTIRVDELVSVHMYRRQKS
Method: (§1) All the proteins were delipidated for 2 h using Sephadex-LH (Sigma-Aldrich) prior to assay. The ligand binding profile of the native and rTsMFABPs were detected spectrofluorometrically using fluorescent FA analogs, including 11-([5-dimethylaminonaphthalene-1-sulfonyl]amino)undecannoic acid (DAUDA), dansyl-DL-α-aminocaprylic acid (DACA) (Molecular Probes), retinol (Sigma-Aldrich) and naturally fluorescent cis-parinaric acid (cPnA; Molecular Probes). Fluorescence emission spectra were recorded at 25°C with a total volume of 200 µl per well using black 96-well Microfluor 1 plates and an Infinite M-200 automated multi-detector (Tecan). The emission and excitation wavelengths for DAUDA, DACA, retinol and cPnA were 519, 519, 325 and 420 nm, and 345, 350, 350 and 315 nm, respectively. We included the TsM 120-kDa protein (10 µM) and recombinant 18 kDa (5 µM; a subunit of the TsM 120-kDa protein), which were proven not to have FA-binding activity, as negative controls during the measurements. All fluorescent stock compounds (10 mM dissolved in ethanol) were stored at −20°C in a dark room and were freshly diluted in ethanol prior to use. The equilibrium dissociation constants (K d) of the proteins bound to DAUDA, retinol and cPnA were estimated by adding increasing concentrations of respective ligands (0.1–10 µM for FA analogs and 0.1–10 mM for retinol) in a micro-quartz plate. Fluorescence intensities were normalized to the peak fluorescence intensity and corrected for background fluorescence of the ligand alone at each concentration. Corrected data were analyzed using the one-site saturation model and best fit algorithm contained in SigmaPlot9 software (y = V max X/K m+X, where y is relative fluorescence and X is concentrations of lipid ligand. V max can be substituted as Fmax [maximum fluorescence]). Competition assays were carried out by monitoring the change in fluorescence intensity at the peak transmission wavelength measured for either rTsMFABPs:DAUDA, rTsMFABPs:retinol or rTsMFABPs:cPnA complex in the presence of 10-fold excess oleic acid.
(§2) The partially purified native and recombinant proteins were subjected to delipidation. Each of the proteins (1 µM) was used in a hydrophobic ligand binding assay against the polarity-sensitive fluorophore-tagged FA analogs (0.1 µM) and retinol (5 mM). […] The TsMFABP2 also bound to DAUDA, although its specific activity was lower than that of the TsMFABP1. […] The retinol-binding activity of rTsMFABP2 appeared to be higher than that of rTsMFABP1. […] No binding activity was detected in the reactions with the TsM 120-kDa and recombinant 18-kDa proteins, which were used as negative controls.

recTsMFABP1 [2] = target: T2, recTsMFABP1 (Taenia solium, UniProt Q2XNL7); test: Fluorometric ligand binding assay, recombinant TsMFABP1; settings: for Kd / Vmax: one-site saturation model, 25°C; for Kd: ligand 0.1-10 µM; for Vmax: rate calculated from relative fluorescence (Vmax = Fmax), ligand 0.1-10 µM (FA analogs) or 0.1-10 mM (retinol); for Vmax/K d (binding rate constant): ratio of Vmax to K d
T2 sequence (Q2XNL7 entry or part of it): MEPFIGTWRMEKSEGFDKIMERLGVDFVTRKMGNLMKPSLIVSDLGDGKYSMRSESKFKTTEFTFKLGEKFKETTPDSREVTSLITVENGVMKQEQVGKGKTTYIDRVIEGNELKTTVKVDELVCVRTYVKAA
Method: as §1, §2

recTsMFABP1 [3] = target: T2, recTsMFABP1; test: as above; settings: rTsMFABP1:DAUDA complex; oleic acid 5 µM (Figure 2B); protein 1 µM, DAUDA 0.1 µM
recTsMFABP2 [4] = target: T1, recTsMFABP2; test: Fluorometric ligand binding assay, recombinant TsMFABP2; settings: rTsMFABP2:retinol complex; oleic acid 5 µM (Figure 2D); protein 1 µM, retinol 5 mM
[5] = one-site saturation model, ligand 0.1-10 µM, 25°C, read-out: K d
[6] = one-site saturation model, 25°C
[7] = protein 1 µM, FA analog 0.1 µM, data not shown

SMILES	Kd (recTsMFABP2 [1]; [5]) [nM]	Vmax (recTsMFABP2 [1]; [6])	Vmax/K d (binding rate constant) (recTsMFABP2 [1])	Kd (recTsMFABP1 [2]) [nM]	Vmax (recTsMFABP1 [2])	Vmax/K d (binding rate constant) (recTsMFABP1 [2])	Competition with DAUDA binding (recTsMFABP1 [3])	Competition with retinol binding (recTsMFABP2 [4])	Binding (fluorescence interaction mode) (recTsMFABP2 [1]; [7])	Binding (fluorescence interaction mode) (recTsMFABP1 [2]; [7])	Kd (recTsMFABP2 [1]) [nM]	Vmax/K d (binding rate constant) (recTsMFABP2 [1]; listed as retinol)	Vmax/K d (binding rate constant) (recTsMFABP1 [2]; listed as retinol)
CN(C)c1cccc2c(S(=O)(=O)NCCCCCCCCCCC(=O)O)cccc12 [DAUDA, 11-([5-dimethylaminonaphthalene-1-sulfonyl]amino)undecannoic acid]	9400 ± 890	364.2±3.5	38.7 and 38.7±3.94	2150 ± 140	299.5±3.0	139.3 and 139.3±12.7	–	–	–	–	–	–	–
CCCCCCCC/C=C\CCCCCCCC(=O)O [oleic acid]	–	–	–	–	–	–	competitively inhibited by oleic acid in a dose-dependent manner	significant replacement of retinol from the binding site	–	–	–	–	–
CC\C=C/C=C/C=C/C=C\CCCCCCCC(=O)O [cPnA, cis-parinaric acid]	640 ± 40	309.1±28.4	483.0 and 483.0±47.1	280 ± 20	608.4±57.8	2172.9 and 2172.9±214.6	–	–	–	–	–	–	–
CCCCCCC(NS(=O)(=O)c1cccc2c(N(C)C)cccc12)C(=O)O (racemic) [DACA, dansyl-DL-α-aminocaprylic acid]	–	–	–	–	–	–	–	–	interaction modes comparable to those with DAUDA	interaction modes comparable to those with DAUDA	–	–	–
CC1=C(/C=C/C(C)=C/C=C/C(C)=C/CO)C(C)(C)CCC1 [Retinol, retinol]	–	207.1±19.6	211.3±20.3	–	306.3±31.4	172.1±15.5	–	–	–	–	980000 ± 80000	211.3	172.1

Reference: publication PMC3493614, “Structural and Binding Properties of Two Paralogous Fatty Acid Binding Proteins of Taenia solium Metacestode” (PLoS Neglected Tropical Diseases, 2012)
